The target of one series is BRD4(1) (Homo sapiens, UniProt O60885). The experiment in a line: BROMOscan bromoKdELECT. It is filed as binding. The settings on record: commercial Bromoscan assay. As to the method:
was used as the calibration curve. To obtain saturated solutions of the compounds of interest, in duplicates 4.4 µL of a 10 or 5 mM stock in DMSO was added to 436 µL Buffer (PBS, pH = 7.4), to give a final concentration of 100 or 50 µM. Samples were incubated on a shaker (500 rpm) at 37°C for 90 minutes and then filtered (Millex-GV 13 mm, 0.22 µm). 304 µL of the filtrate was mixed with 76 µL of acetonitrile on a dilution plate, from which 350 µL was transferred to a UV-plate and UV-absorption was read using a SpectraMax M5 (Molecular devices). The absorbance was blank-corrected and compared to the calibration curve to […]
solubility. The wavelengths used for the calibration curve are available in Table S4.
Sample preparation in CAPTISOL® […]
lower solubility (2) compounds respectively in a 12.5 w/v% CAPTISOL® solution in water. In a precisely tared vial, required amounts of compounds and CAPTISOL® were weighed out as solids. Based on the known density of 12.5 % CAPTISOL® solution (d = 1.05755 g/mL at 25 °C), the precise weight of the resulting solution and so the required amount of water by weight was calculated. The water was added portion wise with agitation, vortexing and sonication cycles in between additions. The saturated solutions were then filtered (Millex-GV 13 mm, 0.22 µm). In duplicates, aliquots of the filtrates were taken and diluted with blank 12.5 % CAPTISOL® water solution in either a 1:14 (higher sol. compounds) or 1:7 (lower sol. compounds) ratio, 350 µL was transferred to a 96-Well Plate (Greiner, UV-star) then UV absorption (240-400 nm, 10 nm steps) was measured using a SpectraMax M5 (Molecular devices). […] The calculated concentrations are available in Table S4. […]
The bromodomain concentration in the eluates was measured by qPCR.
Test compounds were prepared as 1000X stocks in DMSO and distributed by acoustic transfer (non-contact dispensing). […] KDs were determined using an 11-point 3-fold compound dilution series with one DMSO control point, and were calculated with a standard dose-response curve using the Hill equation: […]

A short description of series [1]: bidirectional Caco-2 permeability assay. The series is classed as in vitro ADME. The settings on record: human; for Papp A→B at 120 min / Papp B→A at 120 min / efflux ratio at 120 min: Caco-2; for Papp A→B at 120 min: Direction: A-B (apical-to-basolateral); for Papp A→B at 120 min / Papp B→A at 120 min: n=2; for Papp B→A at 120 min: Direction: B-A (basolateral-to-apical); for efflux ratio at 120 min: from mean A-B and B-A data, read-out: Efflux Ratio (Papp(B-A)/Papp(A-B)). As for the experimental part:
Bidirectional Caco-2 Permeability Assay (provided by Cyprotex Discovery Ltd; Cheshire, UK)19 Following a standard Cyprotex procedure, Caco-2 cells (ATCC), used at passages 40–60, were seeded nt ranswe inserts at a densit f × ⁵ ce s/cm² and maintained in with media changes carried out every 2–3 days. Permeability assays were performed between days 18–22 post-seedin . pr cedures were c nducted at ° in a humidified incu at r with O₂. On the day of the assay, monolayers were prepared by rinsing both the apical and basolateral compartments with pre-warmed anks’ a anced a t uti n at the desired pH and incubated with HBSS on both sides for 30 minutes to equilibrate the compartments. The dosing solutions were obtained by diluting the test compounds in assay uffer t a c ncentrati n f with a fina O c ncentrati n f ≤ v/v and Lucifer yellow was included as a fluorescent marker to assess monolayer integrity. Analytical standards were prepared similarly, omitting the Lucifer yellow . For apical-to-basolateral (A– B) measurements, the dosing solution was applied to the apical chamber and buffer to the basolateral side, while the configuration was reversed for basolateral-to-apical (B–A) measurements. After a 120 min incubation, samples from both compartments were collected and diluted for quantification. Permeability was assessed in duplicates, and reference […]
compounds with known characteristics were included as controls. Quantification of test and control compounds was performed by LC-MS/MS using an 8-point calibration curve under Cyprotex standard analytical conditions. The initial concentration (C0) at time zero was determined from the dosing solution, and recovery was calculated based on concentrations […]
The apparent permeability coefficient (Papp) is calculated from the equation (where dQ/dt is the drug permeation rate across the cells, C0 is the concentration in the donor compartment at time zero, and A is the area of the cell monolayer):
Efflux ratio (ER) is calculated from mean A-B and B-A data: […]
Cells were fixed in situ with cold TCA: untreated cells at the time of compound addition (Tz) and treated cells 48 h after addition of compound (Ti). Cells were washed, then su f rh damine s uti n μ at . w/v in acetic acid was added to each well and incubated for 10 minutes at room temperature. After washing again, the plates were air dried and bound stain solubilized with 10 mM Trizma base before absorbance was […]
Percentage growth (%Growth) was calculated as follows:
when Ti ≥ Tz, %Growth = Ti − Tz x 100 where Ti = absorbance from compound treated cells, Tz = absorbance from untreated cells at time zero, and C = absorbance from control (DMSO) treated cells.
HEK293T, MRC5 and LP1 cells were cultured in DMEM (Gibco 41966 -029) containing 10 % or 15 % (LP1) FBS (Gibco 10270106 or Sigma F9665), 1 % non-essential amino acids (MRC5 only, […]
cultured in RPMI 1640 (Gibco 21875-034) containing 10 % FBS and 1 % P/S. All cells were grown in a humidified incubator with 5 % CO 2 at 37 °C.
(Caco-2 cells form a polarised layer with tight junctions and transporters.)

Where [2] appears, read: Caco-2, Direction: A-B (apical-to-basolateral).
[3] abbreviates: Caco-2, Direction: B-A (basolateral-to-apical).

The source of these data is PMC12188386, “Selective CBP/EP300 Bromodomain Inhibitors: Novel Epigenetic Tools to Counter TNF-α-Driven Inflammation” (JACS Au, 2025).

As a reminder, the Kd is a measure of binding affinity in units of concentration. Low readings indicate higher affinity, high ones lower affinity. What is called Papp A→B is the apparent permeability from the apical to the basolateral side of a cell layer. A low value points to slow passage. In general, Papp B→A refers to how fast a substance crosses the layer from the basolateral side.

At BRD4(1), `CC(=O)Nc1cc(NC(=O)c2ccco2)cc(C(=O)Nc2cccc3nnc(C)cc23)c1` [Compound 1] came in with a dissociation constant Kd of 5.8 µM. In addition, the recovery at 120 min in series [1] (setting [2]) was found to be 80%. The recovery at 120 min in series [1] (setting [3]) was 87.3%. Moreover, in series [1], the Papp A→B at 120 min was determined as 0.0375 ×10⁻⁶ cm/s, the basolateral-to-apical permeability (Papp B→A) at 120 min worked out at 11.5 ×10⁻⁶ cm/s and the efflux ratio at 120 min was found to be 307.

For the compound `Cc1cc2c(NC(=O)c3cc(NC(=O)c4ccco4)cc(-c4ccn(C)n4)c3)cccc2nn1` [Compound 2], at BRD4(1), the Kd amounted to 3.7 µM. This compound also returned a recovery at 120 min in series [1] (setting [2]) of 47%. Moreover, the recovery at 120 min in series [1] (setting [3]) worked out at 61.8%. For the same compound, in series [1], the apical-to-basolateral permeability (Papp A→B) at 120 min was determined as 0.549 ×10⁻⁶ cm/s, the Papp B→A at 120 min was 29 ×10⁻⁶ cm/s and the efflux ratio at 120 min was determined as 52.9.

Take `Cc1cc2c(NC(=O)c3cc(NC(=O)[C@H]4CCCO4)cc(-c4ccn(C)n4)c3)cccc2nn1` [Compound 5]: the Kd on BRD4(1) was found to be 5.1 µM. This compound also registered a recovery at 120 min in series [1] (setting [2]) of 68.2%. In series [1] (setting [3]), this compound registered a recovery at 120 min of 78%. Also, in series [1], the Papp A→B at 120 min amounted to 0.623 ×10⁻⁶ cm/s, the Papp B→A at 120 min is 32.5 ×10⁻⁶ cm/s and the efflux ratio at 120 min was found to be 52.2.
